Where only a bound is given, the exact number is not on record here.

This assay deals with T1, DGAT1 enzyme (Homo sapiens, UniProt O75907).
T1 construct: made in house
T1 sequence (O75907 1-488): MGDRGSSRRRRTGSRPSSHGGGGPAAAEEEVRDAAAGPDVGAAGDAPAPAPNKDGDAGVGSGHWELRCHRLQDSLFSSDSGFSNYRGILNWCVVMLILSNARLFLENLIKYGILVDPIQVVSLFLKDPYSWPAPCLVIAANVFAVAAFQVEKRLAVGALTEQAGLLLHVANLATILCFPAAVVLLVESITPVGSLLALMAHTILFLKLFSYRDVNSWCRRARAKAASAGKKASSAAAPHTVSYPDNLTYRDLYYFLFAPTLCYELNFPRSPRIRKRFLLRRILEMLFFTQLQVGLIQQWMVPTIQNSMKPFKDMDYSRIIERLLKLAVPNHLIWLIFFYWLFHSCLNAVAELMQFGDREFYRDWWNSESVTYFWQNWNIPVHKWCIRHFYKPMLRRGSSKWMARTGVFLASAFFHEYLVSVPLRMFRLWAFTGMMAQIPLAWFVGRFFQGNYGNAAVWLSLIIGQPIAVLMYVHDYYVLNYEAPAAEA
In words: DGAT1 inhibitory activity test. It is filed as biochemical. The following applies: test compound concentration of 0.05 μg/ml; read-out: Inhibitory Rate. The protocol: DGAT1 enzyme was prepared and stored according to the method described in US2007/0249620.
(2) DGAT1 Inhibitory Activity Test
A reaction solution having the following composition was incubated at room temperature (23° C.) for 30 minutes: 175 mM Tris-HCl (pH 8.0), 8 mM MgCl2, 1 mg/ml BSA, 0.3 mM 1,2-dioleoyl-sn-glycerol (10-fold concentration of EtOH solution, 10% added), 10 μM [^14C]-oleoyl-CoA (approximately 50 mCi/mmol), 0.5% Triton X-100, the DGAT1 enzyme (10 μg) obtained in Test Example 1(1), and a test compound or vehicle (DMSO/MeOH, 7:3 solution, 5% added), […] in total. A reaction stop solution ([…] consisting of isopropanol/1-heptane/water (80:20:2, v/v/v) was added to the reaction solution and stirred. Subsequently, water (30 μl) and 1-heptane (100 μl) were added thereto and stirred. The 1-heptane layer (50 μl) was spotted onto a TLC plate and developed with a developing solvent consisting of 1-hexane/diethyl ether/acetic acid (85:15:1, v/v/v). The radioactivity of the triglyceride fraction was quantified using BAS2000 Bio Image Analyzer (FUJIFILM) and compared with the control. The inhibitory activity of the test compound was calculated according to the formula shown below. In this context, the radioactivity at no reaction (0 minute incubation) was used as background. Inhibitory Rate=100−[(Radioactivity of sample supplemented with test compound)−(Background)]/[(Radioactivity of control)−(Background)]×100

For `O=C(O)C[C@@H]1CC[C@H](OC(=O)N2CCc3cc(NC(=O)Nc4ccccc4F)ccc3C2)C1` (relative stereo) [Example 6, cis-6-[3-(2-fluoro-phenyl)-ureido]-3,4-dihydro-1H-isoquinoline-2-carboxylic acid 3-carboxymethyl-cyclopentyl ester], the inhibition at 0.05 µg/mL was ≥ 50%.
As to `C[C@H]1C[C@@H](CC(=O)O)CC[C@H]1OC(=O)N1CCc2cc(NC(=O)Nc3ccccc3F)ccc2C1` (relative stereo) [Example 14, 6-[3-(2-fluoro-phenyl)-ureido]-3,4-dihydro-1H-isoquinoline-2-carboxylic acid c-4-carboxymethyl-c-2-methyl-r-1-cyclohexyl ester], the inhibition at 0.05 µg/mL is ≥ 50%.
On to `O=C(O)C[C@H]1CC[C@@H](OC(=O)N2CCc3cc(NC(=O)Nc4ccccc4F)ccc3C2)CC1` [Example 3, cis-6-[3-(2-fluoro-phenyl)-ureido]-3,4-dihydro-1H-isoquinoline-2-carboxylic acid 4-carboxymethyl-cyclohexyl ester], for which the inhibition at 0.05 µg/mL was ≥ 50%.
As to `O=C(Nc1ccc2c(c1)CCN(C(=O)O[C@H]1CC[C@@H](C(=O)O)CC1)C2)Nc1ccccc1F` [Example 9, cis-6-[3-(2-fluoro-phenyl)-ureido]-3,4-dihydro-1H-isoquinoline-2-carboxylic acid 4-carboxy-cyclohexyl ester], the inhibition at 0.05 µg/mL is ≥ 50%.
Turning to `NC(=O)C[C@H]1CC[C@H](OC(=O)N2CCc3cc(NC(=O)Nc4ccccc4F)ccc3C2)CC1` [Example 18, trans-6-[3-(2-fluoro-phenyl)-ureido]-3,4-dihydro-1H-isoquinoline-2-carboxylic acid 4-carbamoylmethyl-cyclohexyl ester], the inhibition at 0.05 µg/mL is ≥ 50%.
On to `CC(C)(NC(=O)C[C@H]1CC[C@H](OC(=O)N2CCc3cc(NC(=O)Nc4ccccc4F)ccc3C2)CC1)C(=O)O` [Example 19, trans-6-[3-(2-fluoro-phenyl)-ureido]-3,4-dihydro-1H-isoquinoline-2-carboxylic acid 4-[(1-carboxy-1-methyl-1-ethylcarbamoyl)-methyl]-cyclohexyl ester], for which the inhibition at 0.05 µg/mL was ≥ 50%.
Regarding `CN(C)C(=O)C[C@H]1CC[C@H](OC(=O)N2CCc3cc(NC(=O)Nc4ccccc4F)ccc3C2)CC1` [Example 33, trans-6-[3-(2-fluoro-phenyl)-ureido]-3,4-dihydro-1H-isoquinoline-2-carboxylic acid 4-dimethylcarbamoylmethyl-cyclohexyl ester], the inhibition at 0.05 µg/mL was ≥ 50%.
The result for `CNC(=O)C[C@H]1CC[C@H](OC(=O)N2CCc3cc(NC(=O)Nc4ccccc4F)ccc3C2)CC1` [Example 34, trans-6-[3-(2-fluoro-phenyl)-ureido]-3,4-dihydro-1H-isoquinoline-2-carboxylic acid 4-methylcarbamoylmethyl-cyclohexyl ester] reads ≥ 50%; that for `O=C(O)CNC(=O)C[C@H]1CC[C@H](OC(=O)N2CCc3cc(NC(=O)Nc4ccccc4F)ccc3C2)CC1` [Example 35, trans-6-[3-(2-fluoro-phenyl)-ureido]-3,4-dihydro-1H-isoquinoline-2-carboxylic acid 4-[(carboxymethyl-carbamoyl)-methyl]-cyclohexyl ester], ≥ 50%; that for `CC(NC(=O)C[C@H]1CC[C@H](OC(=O)N2CCc3cc(NC(=O)Nc4ccccc4F)ccc3C2)CC1)C(=O)O` (stereo partly drawn) [Example 36, trans-6-[3-(2-fluoro-phenyl)-ureido]-3,4-dihydro-1H-isoquinoline-2-carboxylic acid 4-[(1-carboxy-ethylcarbamoyl)-methyl]-cyclohexyl ester], ≥ 50%.
Regarding `O=C(C[C@H]1CC[C@H](OC(=O)N2CCc3cc(NC(=O)Nc4ccccc4F)ccc3C2)CC1)NC1(C(=O)O)CC1` [Example 37, trans-6-[3-(2-fluoro-phenyl)-ureido]-3,4-dihydro-1H-isoquinoline-2-carboxylic acid 4-[(1-carboxy-cyclopropylcarbamoyl)-methyl]-cyclohexyl ester], the inhibition at 0.05 µg/mL was ≥ 50%.
On to `O=C(Nc1ccc2c(c1)CCN(C(=O)O[C@H]1CC[C@H](CC(=O)N3CCCC3C(=O)O)CC1)C2)Nc1ccccc1F` (stereo partly drawn) [Example 38, trans-6-[3-(2-fluoro-phenyl)-ureido]-3,4-dihydro-1H-isoquinoline-2-carboxylic acid 4-[2-(2-carboxy-pyrrolidin-1-yl)-2-oxo-ethyl]-cyclohexyl ester], for which the inhibition at 0.05 µg/mL is ≥ 50%.
The result for `O=C(Nc1ccc2c(c1)CCN(C(=O)O[C@H]1CC[C@H](Cc3nc(C(=O)O)co3)CC1)C2)Nc1ccccc1F` [Example 39, trans-6-[3-(2-fluoro-phenyl)-ureido]-3,4-dihydro-1H-isoquinoline-2-carboxylic acid 4-(4-carboxy-oxazol-2-ylmethyl)-cyclohexyl ester] reads ≥ 50%.
For `O=C(C[C@H]1CC[C@H](OC(=O)N2CCc3cc(NC(=O)Nc4ccccc4F)ccc3C2)CC1)Nc1nnn[nH]1` [Example 40, trans-6-[3-(2-fluoro-phenyl)-ureido]-3,4-dihydro-1H-isoquinoline-2-carboxylic acid 4-[(1H-tetrazol-5-ylcarbamoyl)-methyl]-cyclohexyl ester], the inhibition at 0.05 µg/mL was ≥ 50%.
The result for `O=C(Nc1ccc2c(c1)CCN(C(=O)O[C@H]1CC[C@H](Cc3cc(O)n[nH]3)CC1)C2)Nc1ccccc1F` [Example 42, trans-6-[3-(2-fluoro-phenyl)-ureido]-3,4-dihydro-1H-isoquinoline-2-carboxylic acid 4-(5-hydroxy-2H-pyrazol-3-ylmethyl)-cyclohexyl ester] reads ≥ 50%; that for `C[S+]([O-])c1cccc(NC(=O)Nc2ccc3c(c2)CCN(C(=O)O[C@H]2CC[C@H](CC(=O)O)CC2)C3)c1` (stereo partly drawn) [Example 65, trans-6-[3-(3-methanesulfinyl-phenyl)-ureido]-3,4-dihydro-1H-isoquinoline-2-carboxylic acid 4-carboxymethyl-cyclohexyl ester], ≥ 50%; that for `COc1ccc(NC(=O)Nc2ccc3c(c2)CCN(C(=O)O[C@H]2CC[C@H](CC(=O)O)CC2)C3)cc1` [Example 79, trans-6-[3-(4-methoxy-phenyl)-ureido]-3,4-dihydro-1H-isoquinoline-2-carboxylic acid 4-carboxymethyl-cyclohexyl ester], ≥ 50%.
Consider `O=C(O)C[C@H]1CC[C@H](OC(=O)N2CCc3cc(NC(=O)Nc4cncc(Cl)c4)ccc3C2)CC1` [Example 93, trans-6-[3-(5-chloro-pyridin-3-yl)-ureido]-3,4-dihydro-1H-isoquinoline-2-carboxylic acid 4-carboxymethyl-cyclohexyl ester], for which the inhibition at 0.05 µg/mL was ≥ 50%.
For `O=C(O)C[C@H]1CC[C@H](OC(=O)N2CCc3cc(NC(=O)Nc4cnccn4)ccc3C2)CC1` [Example 94, trans-6-(3-pyrazin-2-yl-ureido)-3,4-dihydro-1H-isoquinoline-2-carboxylic acid 4-carboxymethyl-cyclohexyl ester], the inhibition at 0.05 µg/mL was ≥ 50%.
`O=C(O)C[C@H]1CC[C@H](OC(=O)N2CCc3cc(Nc4nc5ccccc5s4)ccc3C2)CC1` [Example 98, trans-6-(benzothiazol-2-ylamino)-3,4-dihydro-1H-isoquinoline-2-carboxylic acid 4-carboxymethyl-cyclohexyl ester]: the inhibition at 0.05 µg/mL was ≥ 50%.
Consider `COc1cccc(NC(=O)Nc2ccc3c(c2)CCN(C(=O)C(C)C2CCC(CC(=O)O)CC2)C3)c1` (stereo not drawn) [Example 106, [4-(2-{6-[3-(3-methoxy-phenyl)-ureido]-3,4-dihydro-1H-isoquinolin-2-yl}-1-methyl-2-oxy-ethyl)-cyclohexyl]-acetic acid], for which the inhibition at 0.05 µg/mL was ≥ 50%.

Source of the values: patent publication US8735425B2, “Tetrahydroisoquinoline derivative” (Daiichi Sankyo Company, Limited, priority 2008, dated 2014).
